Values quoted from earlier work as cited in patent US20210095288A1, “METHODS OF MODULATING NKX6.3” (SOCIETE DES PRODUITS NESTLE S.A., priority 2018, published 2021).

Tested on: NKX6.3
Details: effect on NKX6.3 expression; from Davis A P, et al., Comparative Toxicogenomics Database: update 2017

Structure (SMILES): CC(C)(c1ccc(O)cc1)c1ccc(O)cc1 [bisphenol A]
- Interaction Actions: Decreases

Structure (SMILES): CC(=O)Nc1ccc(O)cc1 [Acetaminophen]
- Interaction Actions: Decreases

Structure (SMILES): CCC[CH2][Sn]([CH2]CCC)([CH2]CCC)[O][Sn]([CH2]CCC)([CH2]CCC)[CH2]CCC [bis(tri-n-butyltin)oxide]
- Interaction Actions: Decreases

Structure (SMILES): COC[C@@H]([C@H](O)[C@H](O)C(=O)NCC[C@H](C)c1nc(/C=C/C[C@@H]2O[C@]3(C[C@@H](O)[C@@H]2C)O[C@H]([C@H](C[C@H](O)[C@H](C)[C@H](O)[C@H](C)/C=C(C)/C(C)=C/C=C/C(C)=C\C#N)OC)[C@H](OP(=O)(O)O)C3(C)C)co1)N(C)C [calyculin A]
- Interaction Actions: Decreases

Structure (SMILES): CCCc1cc(=O)[nH]c(=S)[nH]1 [Propylthiouracil]
- Interaction Actions: Decreases
